Results reported in patent publication US20240252674A1, “AGENTS FOR DIRECTED CONJUGATION TECHNIQUES AND CONJUGATED PRODUCTS” (Biohaven Therapeutics Ltd., priority 2021, published 2024).
Where two headings read alike, the source gives them in different places. Where no end group is shown, it is not given here.

Key:
IgG = experiment: Binding of peptide IgG binder (directing group) to IgG; conditions: Kd of the directing group included in the peptide IgG binder
Immunoglobulin G [1] = biological target: Immunoglobulin G
Immunoglobulin G [2] = biological target: Immunoglobulin G; remark: listed apart in the source

Row | Kd (IgG) [nM] | Molecule | other results
1 | 15 | DCAWXLGELVWCT peptide [cyclic peptide IgG binder] | 
2 | 600 | GSYWYDVWF peptide [linear peptide IgG binder] | 
3 |  | cyclic peptide IgG binder (DCAWXLGELVWCT peptide) | Kd (Immunoglobulin G [1]): 15 nM
4 |  | GSYWYDVWF (not fully specified) [linear peptide IgG binder (… peptide)] | Kd (Immunoglobulin G [2]): 600 nM
